Results reported in paper PMC6629613, “Selective and competitive inhibition of kynurenine aminotransferase 2 by glycyrrhizic acid and its analogues” (Scientific Reports, 2019).
Read-outs that look alike come from different tables or passages of the source.

Assays:
human KAT3 = biological target: T1, human KAT3 (Homo sapiens, UniProt Q6YP21); test: Human KAT3 enzyme inhibition, HPLC analysis of KYNA; type: biochemical; conditions: recombinant human KAT3, 1 mM L-KYN, AMP buffer pH 9.5, HPLC; mean ± SEM
T1 construct: purchased OriGene Technologies, Inc
T1 sequence (Q6YP21 whole entry): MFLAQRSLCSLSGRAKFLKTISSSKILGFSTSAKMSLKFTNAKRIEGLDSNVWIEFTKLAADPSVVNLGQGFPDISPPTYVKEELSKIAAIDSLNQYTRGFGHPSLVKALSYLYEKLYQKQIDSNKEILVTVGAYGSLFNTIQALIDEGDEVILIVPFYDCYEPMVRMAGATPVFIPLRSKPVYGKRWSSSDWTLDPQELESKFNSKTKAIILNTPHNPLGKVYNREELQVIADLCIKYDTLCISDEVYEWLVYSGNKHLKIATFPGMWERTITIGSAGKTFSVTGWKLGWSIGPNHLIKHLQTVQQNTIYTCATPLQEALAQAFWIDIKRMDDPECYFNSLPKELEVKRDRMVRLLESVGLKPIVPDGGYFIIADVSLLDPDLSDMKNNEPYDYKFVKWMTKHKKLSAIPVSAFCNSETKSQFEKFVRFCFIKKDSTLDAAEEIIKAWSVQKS
Procedure: KAT3 and KAT4 enzyme activities were measured using high performance liquid chromatography (HPLC) analyses of reaction products. Briefly, KAT3 reaction mixtures (50 μL) contained 10 ng/μL recombinant human KAT3, 1 mM L-KYN, 1 mM sodium pyruvate, 100 μM PLP, 0.005% Tween 20 and inhibitors at various concentrations in 150 mM AMP buffer (pH 9.5). KAT4 reaction mixtures (50 μL) contained recombinant human KAT4, 1 mM L-KYN, 1 mM α-ketoglutaric acid, 100 μM PLP, 0.005% Tween 20 and inhibitors at various concentrations in 100 mM Tris buffer (pH 7.5). Reaction mixtures were incubated for 1 h at 37 °C and reactions were then stopped by adding 3% perchloric acid at a ratio of 1:1. KYNA contents of reaction mixtures were then determined using HPLC (Shimadzu, Kyoto, Japan) following isocratic elution from a reverse-phase column (TSKgel ODS-100V, 3 μm, 4.6 mm [ID] × 150 mm [L]; Tosoh, Tokyo, Japan) using a mobile phase containing 10 mM sodium acetate with 2% acetonitrile (pH adjusted to 4.5) at flow rate of 0.8 mL/min. KYNA was detected using a fluorescence detector (RF-20Axs) at an excitation wavelength of 344 nm and an emission wavelength of 380 nm. […]

mouse KAT2 = biological target: T2, mouse KAT2 (Mus musculus, UniProt Q9WVM8); test: Mouse KAT2 enzyme inhibition, microplate fluorescence assay of KYNA; type: biochemical; conditions: recombinant mouse KAT2, 1 mM L-KYN, AMP buffer pH 9.5; mean ± SEM
T2 construct: made in house; host or cells: insect Sf9 cells (baculovirus)
T2 sequence (Q9WVM8 30-425): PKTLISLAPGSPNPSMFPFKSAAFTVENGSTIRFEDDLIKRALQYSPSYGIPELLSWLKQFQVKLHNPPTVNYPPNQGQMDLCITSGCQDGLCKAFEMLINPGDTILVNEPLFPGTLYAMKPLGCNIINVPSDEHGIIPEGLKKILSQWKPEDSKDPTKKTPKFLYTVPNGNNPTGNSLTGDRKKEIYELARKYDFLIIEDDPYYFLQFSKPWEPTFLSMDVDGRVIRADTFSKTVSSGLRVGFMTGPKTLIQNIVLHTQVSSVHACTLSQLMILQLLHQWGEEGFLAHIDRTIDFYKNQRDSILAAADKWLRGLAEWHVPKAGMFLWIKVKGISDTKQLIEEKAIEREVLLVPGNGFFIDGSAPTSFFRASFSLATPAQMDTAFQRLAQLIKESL
Procedure: (§1) Inhibitory activities of the identified compounds against KAT1 and KAT2 were measured using the enzyme activity assays described above. KAT1 reaction mixtures (20 μL) contained 10 ng/μL recombinant human KAT1, 1 mM L-KYN, 1 mM sodium pyruvate, 100 μM PLP, 0.005% Tween 20 and inhibitors at various concentrations in 150 mM 2-amino-2-methyl-1-propanol (AMP) buffer (pH 7.4 or 9.5). Human and mouse KAT2 reaction mixtures (20 μL) contained 10 ng/μL recombinant human or mouse KAT2, 1 mM L-KYN, 1 mM α-ketoglutaric acid, 100 μM PLP, 0.005% Tween 20 and inhibitors at various concentrations in 150 mM AMP buffer (pH 9.5). Following the addition of 20 μL aliquots of 300 mM zinc acetate, fluorescence intensities of KYNA were measured using an ARVO X Multi Label Reader (PerkinElmer, USA).
(§2) To determine steady state kinetic parameters for the substrate L-KYN, 50 μL reaction mixtures containing 10 ng/μL recombinant human KAT2, 1 mM α-KG, 100 μM PLP, 0.005% Tween 20, L-KYN at concentrations of 10, 5, 2.5, 1.25, 0.62, 0.31 and 0.15 mM and GL, GA or CBX or PF-04859989 at 4.5, 6.0 and 3.5 μM and 300 nM, respectively. Following incubation for 30 min at 37 °C, reactions were stopped by adding 3% perchloric acid at a 1:1 ratio. KYNA concentrations were measured using the same HPLC method as described above. Double reciprocal plots were used to determine types of inhibition. Competitive inhibition constants (Ki) for GL, GA and CBX were calculated using the global fit formula (GraphPad Prism v6.07)[60],[61] as follows: v=Vmax∗[S]/(Kmobs+[S])andKmobs=Km×(1+[I]/Ki), where v = initial velocity, Vmax = maximum velocity, [S] = substrate concentration, Km = Michaelis–Menten constant and [I] = inhibitor concentration. The Ki value of PF-04859989 was calculated using the global fit formula as follows: Vmaxinh=Vmax/(1+[I]/Ki)andKmobs=Vmaxinh×[S]/(Km+[S]), where Vmaxinh = maximum enzyme velocity for the concentration of inhibitor. IC50 values were determined by nonlinear curve fitting using GraphPad Prism v6.07. All statistical analyses were performed using GraphPad Prism v6.07.

human KAT2 [1] = biological target: T3, human KAT2 (Homo sapiens, UniProt Q8N5Z0); test: Human KAT2 inhibition kinetics with varying KYN (Lineweaver-Burk, global fit), HPLC; type: biochemical; conditions: for Ki: global fit formula, mean ± SEM, read-out: Ki (inhibition constant); for type of inhibition: inhibitor close to its IC50, Lineweaver-Burk
T3 construct: made in house; host or cells: insect Sf9 cells (baculovirus)
T3 sequence (Q8N5Z0 30-425): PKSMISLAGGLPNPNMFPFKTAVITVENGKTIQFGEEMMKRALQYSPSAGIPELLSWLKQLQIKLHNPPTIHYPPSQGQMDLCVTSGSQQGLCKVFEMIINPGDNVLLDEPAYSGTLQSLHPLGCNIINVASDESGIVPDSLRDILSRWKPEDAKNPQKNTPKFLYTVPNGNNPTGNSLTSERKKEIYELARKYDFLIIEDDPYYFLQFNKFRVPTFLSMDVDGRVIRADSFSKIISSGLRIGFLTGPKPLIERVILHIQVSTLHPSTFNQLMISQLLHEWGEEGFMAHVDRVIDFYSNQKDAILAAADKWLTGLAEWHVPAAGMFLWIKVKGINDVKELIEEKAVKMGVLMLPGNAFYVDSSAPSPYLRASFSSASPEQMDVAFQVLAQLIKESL
Procedure: as §2

human KAT1 = biological target: T4, human KAT1 (Homo sapiens, UniProt Q16773); test: Human KAT1 enzyme inhibition, microplate fluorescence assay of KYNA; type: biochemical; conditions: recombinant human KAT1, 1 mM L-KYN, 1 mM sodium pyruvate
T4 construct: made in house; host or cells: insect Sf9 cells (baculovirus)
T4 sequence (Q16773 1-422): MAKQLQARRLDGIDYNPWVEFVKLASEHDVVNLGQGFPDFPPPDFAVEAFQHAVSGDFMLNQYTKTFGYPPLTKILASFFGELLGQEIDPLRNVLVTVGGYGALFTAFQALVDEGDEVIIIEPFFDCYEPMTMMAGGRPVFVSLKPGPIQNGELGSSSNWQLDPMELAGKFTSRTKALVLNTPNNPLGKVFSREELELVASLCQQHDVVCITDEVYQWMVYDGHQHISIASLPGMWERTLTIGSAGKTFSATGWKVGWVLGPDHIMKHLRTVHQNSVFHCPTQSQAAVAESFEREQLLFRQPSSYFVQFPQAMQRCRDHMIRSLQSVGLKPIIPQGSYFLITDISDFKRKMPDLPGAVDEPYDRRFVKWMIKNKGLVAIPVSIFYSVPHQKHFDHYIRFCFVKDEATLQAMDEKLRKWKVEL
Procedure: as §1, §2

[2] = cited from earlier work
human KAT2 [3] = biological target: T3, human KAT2; test: Human KAT2 enzyme inhibition, microplate fluorescence assay of KYNA; type: biochemical
Procedure: High-throughput screening assays for inhibitors of human KAT2 were conducted using a microplate fluorescence assay for kynurenine aminotransferase[26] with minor modifications. In these assays, KAT2 enzyme activities were measured in black 384-well untreated plates. The human KAT2 reaction mixture (20 μL) contained 10 ng/μL recombinant human KAT2, 1 mM L-KYN, 1 mM α-ketoglutaric acid, […], 0.005% Tween 20 and 150 mM AMP buffer (pH 9.5), and was added to 384-well plates containing compounds using a Multidrop dispenser (Thermo Fisher Scientific, USA). The compound library comprised about 13,000 compounds from the Drug Discovery Initiative at the University of Tokyo. The compound library includes about 9,600 diverse compounds for pilot screening and about 3,400 known bioactive compounds. All compounds were dissolved and diluted in DMSO to a final concentration of 10 μM. Reaction mixtures were incubated for 2 h at room temperature, and 20 μL aliquots of 300 mM zinc acetate (pH 5.5) were then added directly using a Multidrop dispenser. Fluorescence intensities of KYNA were measured using an ARVO X Multi Label Reader (PerkinElmer, USA) at an excitation wavelength of 340 nm and an emission wavelength of 460 nm. Assay quality was validated by calculating signal–background and Z’ factor. These assays identified approximately 20 candidate KAT2 inhibitors with potent inhibitory activity from about 13,000 compounds. Candidate compounds were validated in quadruplicate KAT2 enzyme activity assays.
as §1, with “Human and mouse KAT2 reaction mixtures (20 μL) contained 10 ng/μL recombinant human or mouse KAT2, 1 mM L-KYN, 1 mM α-ketoglutaric acid, 100 μM PLP, 0.005% Tween 20 and inhibitors at various concentrations in 150 mM AMP buffer (pH 9.5).” left out
as §2

human KAT4 = biological target: T5, human KAT4 (Homo sapiens, UniProt P00505); test: Human KAT4 enzyme inhibition, HPLC analysis of KYNA; type: biochemical; conditions: recombinant human KAT4, 1 mM L-KYN, Tris buffer pH 7.5, HPLC
T5 construct: made in house; host or cells: insect Sf9 cells (baculovirus)
T5 sequence (P00505 30-430): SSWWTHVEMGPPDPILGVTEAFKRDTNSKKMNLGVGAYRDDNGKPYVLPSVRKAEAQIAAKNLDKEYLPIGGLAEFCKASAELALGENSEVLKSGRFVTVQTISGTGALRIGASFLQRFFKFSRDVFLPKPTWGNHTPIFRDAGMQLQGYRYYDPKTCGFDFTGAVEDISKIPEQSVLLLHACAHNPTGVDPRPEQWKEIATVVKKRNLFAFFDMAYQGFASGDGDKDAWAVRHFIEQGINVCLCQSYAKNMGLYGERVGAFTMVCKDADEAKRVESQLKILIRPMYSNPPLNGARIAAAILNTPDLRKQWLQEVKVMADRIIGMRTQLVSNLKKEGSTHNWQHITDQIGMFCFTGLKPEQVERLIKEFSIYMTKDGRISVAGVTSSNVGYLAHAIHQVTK
Procedure: KAT3 and KAT4 enzyme activities were measured using high performance liquid chromatography (HPLC) analyses of reaction products. Briefly, KAT3 reaction mixtures (50 μL) contained 10 ng/μL recombinant human KAT3, 1 mM L-KYN, 1 mM sodium pyruvate, 100 μM PLP, 0.005% Tween 20 and inhibitors at various concentrations in 150 mM AMP buffer (pH 9.5). KAT4 reaction mixtures (50 μL) contained recombinant human KAT4, 1 mM L-KYN, 1 mM α-ketoglutaric acid, 100 μM PLP, 0.005% Tween 20 and inhibitors at various concentrations in 100 mM Tris buffer (pH 7.5). Reaction mixtures were incubated for 1 h at 37 °C and reactions were then stopped by adding 3% perchloric acid at a ratio of 1:1. KYNA contents of reaction mixtures were then determined using HPLC (Shimadzu, Kyoto, Japan) following isocratic elution from a reverse-phase column (TSKgel ODS-100V, 3 μm, 4.6 mm [ID] × 150 mm [L]; Tosoh, Tokyo, Japan) using a mobile phase containing 10 mM sodium acetate with 2% acetonitrile (pH adjusted to 4.5) at flow rate of 0.8 mL/min. KYNA was detected using a fluorescence detector (RF-20Axs) at an excitation wavelength of 344 nm and an emission wavelength of 380 nm.
as §2, with “Double reciprocal plots were used to determine types of inhibition.” left out, “The Ki value of PF-04859989 was calculated using the global fit formula as follows: Vmaxinh=Vmax/(1+[I]/Ki)andKmobs=Vmaxinh×[S]/(Km+[S]), where Vmaxinh = maximum enzyme velocity for the concentration of inhibitor.” left out, “All statistical analyses were performed using GraphPad Prism v6.07.” left out

human KAT2 [4] = biological target: T3, human KAT2; design: method as in PMID 18537204, PMID 27367665; conditions: read-out: reported IC50; cited from earlier work
[5] = human KAT2 at physiological conditions (pH 7.4)
[6] = recombinant human KAT2, 1 mM L-KYN, AMP buffer pH 9.5, mean ± SEM, three experiments

Row | Compound | IC50 (human KAT3) | IC50 (mouse KAT2) | Ki (human KAT2 [1]) | type of inhibition (human KAT2 [1]) | IC50 (human KAT1) | passage through the BBB [2] | IC50 (human KAT2 [3]; [5]) | IC50 (human KAT2 [3]; [6]) | IC50 (human KAT4) | IC50 (human KAT2 [3]; KAT2, as determined in our assays) | IC50 (human KAT2 [4])
1 | CC1(C)[C@@H](OC(=O)CCC(=O)O)CC[C@]2(C)[C@H]3C(=O)C=C4[C@@H]5C[C@@](C)(C(=O)O)CC[C@]5(C)CC[C@@]4(C)[C@]3(C)CC[C@@H]12 [CBX, carbenoxolone] | > 500 µM | 19.8 ± 0.34 µM | 4.11 ± 0.37 µM | competitive inhibitors of KYN | > 500 µM | failed to pass through the BBB | 3.34 ± 0.25 µM | 3.9 ± 0.37 µM | > 500 µM | – | –
2 | N[C@H]1Cc2ccccc2N(O)C1=O [PF-04859989] | – | – | 0.22 ± 0.01 µM | maximum reaction rates (Vmax) varied but the Michaelis–Menten constant (Km) did not change | – | – | – | – | – | 0.3 µM | –
3 | CC1(C)[C@@H](O)CC[C@]2(C)[C@H]3C(=O)C=C4[C@@H]5C[C@@](C)(C(=O)O)CC[C@]5(C)CC[C@@]4(C)[C@]3(C)CC[C@@H]12 [GA, glycyrrhetinic acid] | – | 56.8 ± 1.45 µM | 6.92 ± 0.6 µM | competitive inhibitors of KYN | > 500 µM | – | 9.87 ± 0.32 µM | 6.96 ± 0.37 µM | > 500 µM | – | –
4 | (S)-4-(ethylsulfonyl)benzoylalanine [S-ESBA] | – | – | – | – | – | – | – | – | – | – | ~1000 µM
5 | CC1(C)[C@@H](O[C@H]2O[C@H](C(=O)O)[C@@H](O)[C@H](O)[C@H]2O[C@@H]2O[C@H](C(=O)O)[C@@H](O)[C@H](O)[C@H]2O)CC[C@]2(C)[C@H]3C(=O)C=C4[C@@H]5C[C@@](C)(C(=O)O)CC[C@]5(C)CC[C@@]4(C)[C@]3(C)CC[C@@H]12 [GL, glycyrrhizic acid] | > 500 µM | 86.2 ± 1.94 µM | 10.4 ± 1.62 µM | competitive inhibitors of KYN | > 500 µM | – | 7.93 ± 0.17 µM | 4.51 ± 0.2 µM | > 500 µM | – | –
6 | O=C(O)C(Cc1ccccc1)N1C(=O)c2cc(Cl)c(Cl)cc2C1=O (centres unmarked) [NS-1502] | – | – | – | – | – | – | – | – | – | – | 315 µM
